The structures appear in SMILES notation. Entries after “also recorded” stand apart in the source; their conditions may differ. Read-outs that look alike come from different tables or passages of the source.

Common to all, as to type: physicochemical
Data set [1] in a line: Static storage at 40° C./75% RH, XRPD and HPLC post storage. Particulars: 7 days.
Data set [2] is described as follows: Static storage at 25° C./97% RH, XRPD and HPLC post storage. Particulars: 8 days, listed as Lot B Sample 1.
Data set [3] can be described thus: Competitive slurries of Pattern 3 and Pattern 11, XRPD. The procedure, abridged:
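Turbula-mixed 1:1 Pattern 3/Pattern 11 solid (30 mg) slurried in dried solvent (20 vol) at fridge temperature, RT or 55 °C; XRPD after 7 days, mixtures re-checked after a further 10 days. Repeats at 5 °C and 55 °C used filtered THF/water (9:1) saturated with Structure (I); XRPD after 1 and 11 days.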

A short description of data set [4]: Gravimetric vapor sorption (GVS) and XRPD post-GVS. Particulars: for GVS reversible water uptake 0-90% RH: 25° C.; for Post GVS XRPD form: after double cycle GVS. As to the method:
Sorption isotherms were obtained using a SMS DVS Intrinsic moisture sorption analyzer, controlled by DVS Intrinsic Control software. The sample temperature was maintained at 25° C. by the instrument controls. The humidity was controlled by mixing streams of dry and wet nitrogen, with a total flow rate of 200 mL/min. The relative humidity was measured by a calibrated Rotronic probe (dynamic range of 1.0-100% RH), located near the sample. The weight change, (mass relaxation) of the sample as a function of % RH was constantly monitored by a microbalance (accuracy±0.005 mg).
Typically, 5-30 mg of sample was placed in a tared mesh stainless steel basket under ambient conditions. The sample was loaded and unloaded at 40% RH and 25° C. (typical room conditions). A moisture sorption isotherm was performed as outlined below (2 scans per complete cycle). The standard isotherm was performed at 25° C. at 10% RH intervals over a 0-90% RH range. Typically, a double cycle (4 scans) was carried out. Data analysis was carried out within Microsoft Excel using the DVS Analysis Suite.
Sorption isotherms were obtained using a Hiden IGASorp moisture sorption analyser, controlled by Isochema HISorp software. The sample temperature was maintained at 25° C. by a Grant LT ecocool 150 re-circulating water bath. The humidity was controlled by mixing streams of dry and wet nitrogen, with a total flow rate of 250 ml·min-1. The relative humidity was measured by a calibrated Vaisala RH probe (dynamic range of 0-95% RH), located near the sample. The weight change, (mass relaxation) of the sample as a function of % RH was constantly monitored by the microbalance (accuracy±0.001 mg).
Typically, 20-30 mg of sample was placed in a tared mesh stainless steel basket under ambient conditions. The sample was loaded and unloaded at 40% RH and 25° C. (typical room conditions). A moisture sorption isotherm was performed as outlined below (2 scans giving 1 complete cycle). The standard isotherm was performed at 25° C. at 10% RH intervals over a 0-90% RH range. Typically, a double cycle (4 scans) was carried out. Data analysis was carried out within the Isochema HISorp 2019 software and exported into Microsoft Excel to present accordingly.

Data set [5] is described as follows: Heating for 24 h in a vacuum tray dryer, XRPD and HPLC. Conditions: 75° C., reduced pressure. As to the method:
A polymorphism study of Structure (I) was performed at 75° C., 100° C., 175° C., and 250° C. About 500 mg of Structure (I) Pattern 3 was heated at 75° C. for 24 h in a vacuum tray dryer (VTD) under reduced pressure. Obtained material after heating at 75° C. was analyzed for purity by HPLC and XPRD analysis. […] Additionally, about 500 mg of Structure (I) was heated at 75° C. for 24 h in a VTD under reduced pressure. After 24 h, material was cooled to 25-30° C. under inert atmosphere and analyzed for purity by HPLC and XRPD.
About 500 mg of Structure (I) was heated at 100° C. for 24 h in a VTD under reduced pressure. Obtained material after heating at 100° C. was analyzed for purity by HPLC and XPRD. […] Additionally, about 500 mg of Structure (I) was heated at 100° C. for 24 h in a VTD under reduced pressure. After 24 h material was cooled to 25-30° C. under inert atmosphere. Obtained material was analyzed for purity by HPLC and XPRD.
Obtained material after heating at 175° C. was analyzed for purity by HPLC and XPRD. […] After 24 h, material was cooled to 25-30° C. under inert atmosphere. Obtained material was analyzed for purity by HPLC and XPRD.
About 500 mg of Structure (I) was heated at 250° C. for 24 h in a VTD. Obtained material after heating at 250° C. was analyzed for purity by HPLC and XPRD.

For the molecule `Cc1cc(Nc2cc(N)ncn2)c(=O)n2c1C(=O)NC21CCC2(CC2)CC1` [Pattern 3], in data set [1] (listed as 9-5), the “XRPD post storage at 40° C./75% RH” value is “remained unchanged by XRPD; also recorded: Free Form Pattern 3”. In addition, the “XRPD post storage at 40° C./75% RH” value in data set [1] (listed as Lot B Sample 1) is on record as “Unchanged by XRPD”. In data set [2], the “HPLC purity after storage at 25° C./97% RH (8 days)” value stood at 98.5% and the “XRPD after storage at 25° C./97% RH (8 days)” value is “Unchanged by XRPD”. Moreover, in data set [3], the “form conversion in competitive slurries (in words)” value is on record as “converted to Pattern 11”. Also, in data set [4], the “hygroscopicity (in words)” value is given as “hygroscopic”, the “GVS reversible water uptake 0-90% RH” value is 8.4 wt % and the “Post GVS XRPD form” value was “the solid form was retained”. In addition, in data set [4] (listed as Lot B Sample 1), the “GVS reversible water uptake 0-90% RH” value is listed as 8.4 wt % reversible water uptake, the “Post GVS XRPD form” value is “Post GVS XRPD: No change in form” and the “hygroscopicity (in words)” value is recorded as “Material is hygroscopic”. Also, the “GVS uptake 80-90% RH” value in data set [4] (80-90% RH) was 6.3 wt % uptake 80-90% RH. Besides, the “hygroscopicity (in words)” value in data set [4] (listed as Lot B) was “hygroscopic”. Moreover, in data set [5], the “HPLC purity change after heating at 75° C.” value is listed as “no change” and the “XRPD form after heating at 75° C.” value is given as “remained as Pattern 3”.
